Laboratory results: patent US20090184006A1, “METHOD FOR THE DETERMINATION OF THE ACTIVITY OF THE ORGANIC CATION TRANSPORTER” (SANOFI-AVENTIS, priority 2006, published 2009)

Tests used:
[1] = molecular target: T1, hOCT2 (SLC22A2) (Homo sapiens, UniProt O15244, S270A); assay: cell free electrophysiological sensor chip assay, inhibition of choline-induced current, hOCT2 CHO cell membranes; type: biochemical; conditions: 30 mM choline as substrate (FIG. 4B legend), pH 7.4, read-out: IC50 of TBA of hOCT2
T1 construct: expressed in transfected cells; host or cells: CHO cells, stably transfected; membrane fragments immobilised on the sensor chip
T1 sequence (O15244 1-555 S270A): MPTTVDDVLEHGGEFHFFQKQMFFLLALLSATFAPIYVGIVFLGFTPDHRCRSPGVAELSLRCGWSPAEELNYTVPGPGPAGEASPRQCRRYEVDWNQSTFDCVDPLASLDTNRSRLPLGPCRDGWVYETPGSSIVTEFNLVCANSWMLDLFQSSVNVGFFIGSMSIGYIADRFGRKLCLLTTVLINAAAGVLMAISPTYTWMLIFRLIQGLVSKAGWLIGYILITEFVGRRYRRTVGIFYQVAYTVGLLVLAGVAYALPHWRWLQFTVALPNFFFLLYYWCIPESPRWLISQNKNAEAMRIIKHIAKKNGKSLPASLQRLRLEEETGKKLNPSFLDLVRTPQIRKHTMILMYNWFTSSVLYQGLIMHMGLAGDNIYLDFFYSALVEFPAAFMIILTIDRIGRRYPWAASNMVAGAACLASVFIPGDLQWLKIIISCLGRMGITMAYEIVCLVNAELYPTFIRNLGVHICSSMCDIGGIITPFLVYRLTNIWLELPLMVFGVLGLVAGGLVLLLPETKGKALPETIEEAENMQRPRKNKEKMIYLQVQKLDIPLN
Description: IC50 was determined using 30 mM choline as a substrate.
(§1) After harvesting the cells from a virally transfected Sf9 or HighFive suspension cell line or an stably transfected adherent CHO cell line via centrifugation, aliquots of approx. 2 g wet weight cells were quick-frozen in liquid nitrogen and stored at −80° C. for further preparation.
(§2) The membrane fragments were prepared by cell rapture. Cells were homogenized by the nitrogen cell disruption method utilizing a Parr Cell Disruption Bomb (Parr Instrument Company, Illinois, USA) or the Dounce homogenisation method utilizing a Dounce Homogenisator (7 ml from Novodirect GmbH, Kehl/Rhein, Germany) and the suspension centrifuged 10 min at 4° C. and 680 g and 10 min at 4° C. and 6100 g. The supernatants were collected and again centrifuged for 1 h at 4° C. and 100,000 g in SW41 swing-out rotor.
(§3) Biosensors were prepared according to the following protocol. • 1. Addition of 30 μl mercaptane solution (2% mercaptane in isopropanol) to biosensor • 2. Incubation time: 15 min • 3. Rinsing with 3×70 μl isopropanol • 4. Vacuum dry biosensor • 5. Drying time: 30 min • 6. […]
(§4) For the determination of its activity, the OCT protein was treated consecutively with a washing, non-activating and activating solution and the electrical current was measured when changing from charging to activating treatment. […]

[2] = molecular target: T2, rOCT2 (slc22a2) (Rattus norvegicus, UniProt Q9R0W2); assay: cell free electrophysiological sensor chip assay, inhibition of choline-induced current, rOCT2 CHO cell membranes; type: biochemical; conditions: 10 mM choline as substrate, pH 7.4, read-out: IC50 of TBA of rOCT2
T2 construct: expressed in transfected cells; host or cells: CHO cells, stably transfected; membrane fragments immobilised on the sensor chip
T2 sequence (Q9R0W2 with tags, fused parts or gaps limits assumed): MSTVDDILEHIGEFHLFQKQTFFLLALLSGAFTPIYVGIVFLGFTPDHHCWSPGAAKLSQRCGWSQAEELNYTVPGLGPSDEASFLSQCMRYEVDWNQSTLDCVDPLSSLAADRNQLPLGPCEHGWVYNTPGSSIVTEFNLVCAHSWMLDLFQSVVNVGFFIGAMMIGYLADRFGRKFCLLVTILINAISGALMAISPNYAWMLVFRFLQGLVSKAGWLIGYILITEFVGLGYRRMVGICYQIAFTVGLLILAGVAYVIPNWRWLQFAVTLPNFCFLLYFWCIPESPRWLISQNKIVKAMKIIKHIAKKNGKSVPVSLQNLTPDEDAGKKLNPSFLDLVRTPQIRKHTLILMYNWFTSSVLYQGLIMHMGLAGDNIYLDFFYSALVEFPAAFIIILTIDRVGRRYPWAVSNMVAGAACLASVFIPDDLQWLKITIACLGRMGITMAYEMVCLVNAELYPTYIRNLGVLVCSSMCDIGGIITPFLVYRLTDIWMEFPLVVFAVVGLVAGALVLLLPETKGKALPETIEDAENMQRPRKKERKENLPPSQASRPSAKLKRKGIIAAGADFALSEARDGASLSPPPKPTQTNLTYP
Description: IC50 was determined using 10 mM choline as a substrate.
as §1, §2, §3, §4

IC50 [1]: 2.9 µM
IC50 [2]: 3.5 µM
SMILES: CCCC[N+](CCCC)(CCCC)CCCC [TBA]
